Measurements as given in article PMC5622171 (Nature Communications, 2017).

Experiments:
Test in all cases: KINOMEscan kinase profiling
Assay type in all cases: binding
SIK = target: T1, SIK (Homo sapiens, UniProt P57059)
T1 construct: purchased DiscoverX (Ambit Biosciences) KINOMEscan
Experimental: (§1) Kinase inhibition profiling assays. The kinase inhibition profiling assay (KINOMEscan) was performed by Ambit Biosciences, now part of DiscoveryX (Fremont, CA) in accordance with the […]
(§2) published protocol20, 21. […] If the inhibition of a kinase was greater […]
(§3) dilutions) starting from 30 µM.

FGFR4 = target: T2, FGFR4 (Homo sapiens, UniProt P22455); details: read-out: %Inhibition by 10 μM SPA70
T2 construct: purchased DiscoverX (Ambit Biosciences) KINOMEscan
Experimental: as §1, §2, §3

LKB1 = target: T3, LKB1 (Homo sapiens, UniProt Q15831); details: read-out: %Inhibition by 10 μM SPA70
T3 construct: purchased DiscoverX (Ambit Biosciences) KINOMEscan
Experimental: as §1, §2, §3

GSK3B = target: T4, GSK3B (Homo sapiens, UniProt P49841)
T4 construct: purchased DiscoverX (Ambit Biosciences) KINOMEscan
Experimental: as §1, §2, §3

PAK6 = target: T5, PAK6 (Homo sapiens, UniProt Q9NQU5); details: read-out: %Inhibition by 10 μM SPA70
T5 construct: purchased DiscoverX (Ambit Biosciences) KINOMEscan
Experimental: as §1, §2, §3

ERBB4 = target: T6, ERBB4 (Homo sapiens, UniProt Q15303); details: read-out: %Inhibition by 10 μM SPA70
T6 construct: purchased DiscoverX (Ambit Biosciences) KINOMEscan
Experimental: as §1, §2, §3

CSNK2A2 = target: T7, CSNK2A2 (Homo sapiens, UniProt P19784); details: read-out: %Inhibition by 10 μM SPA70
T7 construct: purchased DiscoverX (Ambit Biosciences) KINOMEscan
Experimental: as §1, §2, §3

ERK3 = target: T8, ERK3 (Homo sapiens, UniProt Q16659); details: read-out: %Inhibition by 10 μM SPA70
T8 construct: purchased DiscoverX (Ambit Biosciences) KINOMEscan
Experimental: as §1, §2, §3

MAP3K15 = target: T9, MAP3K15 (Homo sapiens, UniProt Q6ZN16); details: read-out: %Inhibition by 10 μM SPA70
T9 construct: purchased DiscoverX (Ambit Biosciences) KINOMEscan
Experimental: as §1, §2, §3

JNK1 = target: T10, JNK1 (Homo sapiens, UniProt P45983)
T10 construct: purchased DiscoverX (Ambit Biosciences) KINOMEscan
Experimental: as §1, §2, §3

TRKC = target: T11, TRKC (Homo sapiens, UniProt Q16288); details: read-out: %Inhibition by 10 μM SPA70
T11 construct: purchased DiscoverX (Ambit Biosciences) KINOMEscan
Experimental: as §1, §2, §3

CDKL1 = target: T12, CDKL1 (Homo sapiens, UniProt Q00532); details: read-out: %Inhibition by 10 μM SPA70
T12 construct: purchased DiscoverX (Ambit Biosciences) KINOMEscan
Experimental: as §1, §2, §3

p38-beta = target: T13, p38-beta (Homo sapiens, UniProt Q15759); details: read-out: %Inhibition by 10 μM SPA70
T13 construct: purchased DiscoverX (Ambit Biosciences) KINOMEscan
Experimental: as §1, §2, §3

DYRK2 = target: T14, DYRK2 (Homo sapiens, UniProt Q92630); details: read-out: %Inhibition by 10 μM SPA70
T14 construct: purchased DiscoverX (Ambit Biosciences) KINOMEscan
Experimental: as §1, §2, §3

MTOR = target: T15, MTOR (Homo sapiens, UniProt P42345); details: read-out: %Inhibition by 10 μM SPA70
T15 construct: purchased DiscoverX (Ambit Biosciences) KINOMEscan
Experimental: as §1, §2, §3

NIM1 = target: T16, NIM1 (Homo sapiens, UniProt Q8IY84); details: read-out: %Inhibition by 10 μM SPA70
T16 construct: purchased DiscoverX (Ambit Biosciences) KINOMEscan
Experimental: as §1, §2, §3

CDK9 = target: T17, CDK9 (Homo sapiens, UniProt P50750); details: read-out: %Inhibition by 10 μM SPA70
T17 construct: purchased DiscoverX (Ambit Biosciences) KINOMEscan
Experimental: as §1, §2, §3

PIK3CD = target: T18, PIK3CD (Homo sapiens, UniProt O00329); details: read-out: %Inhibition by 10 μM SPA70
T18 construct: purchased DiscoverX (Ambit Biosciences) KINOMEscan
Experimental: as §1, §2, §3

MYLK = target: T19, MYLK (Homo sapiens, UniProt Q15746); details: read-out: %Inhibition by 10 μM SPA70
T19 construct: purchased DiscoverX (Ambit Biosciences) KINOMEscan
Experimental: as §1, §2, §3

RIPK2 = target: T20, RIPK2 (Homo sapiens, UniProt O43353); details: read-out: %Inhibition by 10 μM SPA70
T20 construct: purchased DiscoverX (Ambit Biosciences) KINOMEscan
Experimental: as §1, §2, §3

AKT3 = target: T21, AKT3 (Homo sapiens, UniProt Q9Y243); details: read-out: %Inhibition by 10 μM SPA70
T21 construct: purchased DiscoverX (Ambit Biosciences) KINOMEscan
Experimental: as §1, §2, §3

MEK4 = target: T22, MEK4 (Homo sapiens, UniProt P45985); details: read-out: %Inhibition by 10 μM SPA70
T22 construct: purchased DiscoverX (Ambit Biosciences) KINOMEscan
Experimental: as §1, §2, §3

ACVR1B = target: T23, ACVR1B (Homo sapiens, UniProt P36896); details: read-out: %Inhibition by 10 μM SPA70
T23 construct: purchased DiscoverX (Ambit Biosciences) KINOMEscan
Experimental: as §1, §2, §3

MRCKA = target: T24, MRCKA (Homo sapiens, UniProt Q5VT25); details: read-out: %Inhibition by 10 μM SPA70
T24 construct: purchased DiscoverX (Ambit Biosciences) KINOMEscan
Experimental: as §1, §2, §3

PKN1 = target: T25, PKN1 (Homo sapiens, UniProt Q16512); details: read-out: %Inhibition by 10 μM SPA70
T25 construct: purchased DiscoverX (Ambit Biosciences) KINOMEscan
Experimental: as §1, §2, §3

MYO3B = target: T26, MYO3B (Homo sapiens, UniProt Q8WXR4); details: read-out: %Inhibition by 10 μM SPA70
T26 construct: purchased DiscoverX (Ambit Biosciences) KINOMEscan
Experimental: as §1, §2, §3

MAP3K3 = target: T27, MAP3K3 (Homo sapiens, UniProt Q99759); details: read-out: %Inhibition by 10 μM SPA70
T27 construct: purchased DiscoverX (Ambit Biosciences) KINOMEscan
Experimental: as §1, §2, §3

FLT1 = target: T28, FLT1 (Homo sapiens, UniProt P17948); details: read-out: %Inhibition by 10 μM SPA70
T28 construct: purchased DiscoverX (Ambit Biosciences) KINOMEscan
Experimental: as §1, §2, §3

MAP4K2 = target: T29, MAP4K2 (Homo sapiens, UniProt Q12851); details: read-out: %Inhibition by 10 μM SPA70
T29 construct: purchased DiscoverX (Ambit Biosciences) KINOMEscan
Experimental: as §1, §2, §3

HPK1 = target: T30, HPK1 (Homo sapiens, UniProt Q92918); details: read-out: %Inhibition by 10 μM SPA70
T30 construct: purchased DiscoverX (Ambit Biosciences) KINOMEscan
Experimental: as §1, §2, §3

PRKD2 = target: T31, PRKD2 (Homo sapiens, UniProt Q9BZL6); details: read-out: %Inhibition by 10 μM SPA70
T31 construct: purchased DiscoverX (Ambit Biosciences) KINOMEscan
Experimental: as §1, §2, §3

CHEK1 = target: T32, CHEK1 (Homo sapiens, UniProt O14757)
T32 construct: purchased DiscoverX (Ambit Biosciences) KINOMEscan
Experimental: as §1, §2, §3

ACVR2B = target: T33, ACVR2B (Homo sapiens, UniProt Q13705)
T33 construct: purchased DiscoverX (Ambit Biosciences) KINOMEscan
Experimental: as §1, §2, §3

INSR = target: T34, INSR (Homo sapiens, UniProt P06213); details: read-out: %Inhibition by 10 μM SPA70
T34 construct: purchased DiscoverX (Ambit Biosciences) KINOMEscan
Experimental: as §1, §2, §3

RIPK5 = target: T35, RIPK5 (Homo sapiens, UniProt Q6XUX3); details: read-out: %Inhibition by 10 μM SPA70
T35 construct: purchased DiscoverX (Ambit Biosciences) KINOMEscan
Experimental: as §1, §2, §3

CLK2 = target: T36, CLK2 (Homo sapiens, UniProt P49760); details: read-out: %Inhibition by 10 μM SPA70
T36 construct: purchased DiscoverX (Ambit Biosciences) KINOMEscan
Experimental: as §1, §2, §3

DRAK1 = target: T37, DRAK1 (Homo sapiens, UniProt Q9UEE5); details: read-out: %Inhibition by 10 μM SPA70
T37 construct: purchased DiscoverX (Ambit Biosciences) KINOMEscan
Experimental: as §1, §2, §3

YANK2 = target: T38, YANK2 (Homo sapiens, UniProt Q9NY57); details: read-out: %Inhibition by 10 μM SPA70
T38 construct: purchased DiscoverX (Ambit Biosciences) KINOMEscan
Experimental: as §1, §2, §3

MST1 = target: T39, MST1 (Homo sapiens, UniProt Q13043)
T39 construct: purchased DiscoverX (Ambit Biosciences) KINOMEscan
Experimental: as §1, §2, §3

MARK2 = target: T40, MARK2 (Homo sapiens, UniProt Q7KZI7); details: read-out: %Inhibition by 10 μM SPA70
T40 construct: purchased DiscoverX (Ambit Biosciences) KINOMEscan
Experimental: as §1, §2, §3

PIP5K2C = target: T41, PIP5K2C (Homo sapiens, UniProt Q8TBX8); details: read-out: %Inhibition by 10 μM SPA70
T41 construct: purchased DiscoverX (Ambit Biosciences) KINOMEscan
Experimental: as §1, §2, §3

FRK = target: T42, FRK (Homo sapiens, UniProt P42685); details: read-out: %Inhibition by 10 μM SPA70
T42 construct: purchased DiscoverX (Ambit Biosciences) KINOMEscan
Experimental: as §1, §2, §3

NEK9 = target: T43, NEK9 (Homo sapiens, UniProt Q8TD19); details: read-out: %Inhibition by 10 μM SPA70
T43 construct: purchased DiscoverX (Ambit Biosciences) KINOMEscan
Experimental: as §1, §2, §3

T4 sequence (P49841 whole entry): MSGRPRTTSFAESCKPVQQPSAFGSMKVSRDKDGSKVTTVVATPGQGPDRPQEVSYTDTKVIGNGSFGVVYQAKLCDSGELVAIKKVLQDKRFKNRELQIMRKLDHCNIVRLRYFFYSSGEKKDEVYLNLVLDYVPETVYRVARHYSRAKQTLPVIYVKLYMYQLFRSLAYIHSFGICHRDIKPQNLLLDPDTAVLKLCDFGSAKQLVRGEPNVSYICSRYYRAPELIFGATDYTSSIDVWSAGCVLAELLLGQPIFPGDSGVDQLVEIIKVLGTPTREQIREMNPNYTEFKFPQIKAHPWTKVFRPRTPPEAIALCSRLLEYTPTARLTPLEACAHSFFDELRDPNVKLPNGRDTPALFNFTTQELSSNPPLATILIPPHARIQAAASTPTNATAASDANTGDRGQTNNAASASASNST
T1 sequence (P57059 whole entry): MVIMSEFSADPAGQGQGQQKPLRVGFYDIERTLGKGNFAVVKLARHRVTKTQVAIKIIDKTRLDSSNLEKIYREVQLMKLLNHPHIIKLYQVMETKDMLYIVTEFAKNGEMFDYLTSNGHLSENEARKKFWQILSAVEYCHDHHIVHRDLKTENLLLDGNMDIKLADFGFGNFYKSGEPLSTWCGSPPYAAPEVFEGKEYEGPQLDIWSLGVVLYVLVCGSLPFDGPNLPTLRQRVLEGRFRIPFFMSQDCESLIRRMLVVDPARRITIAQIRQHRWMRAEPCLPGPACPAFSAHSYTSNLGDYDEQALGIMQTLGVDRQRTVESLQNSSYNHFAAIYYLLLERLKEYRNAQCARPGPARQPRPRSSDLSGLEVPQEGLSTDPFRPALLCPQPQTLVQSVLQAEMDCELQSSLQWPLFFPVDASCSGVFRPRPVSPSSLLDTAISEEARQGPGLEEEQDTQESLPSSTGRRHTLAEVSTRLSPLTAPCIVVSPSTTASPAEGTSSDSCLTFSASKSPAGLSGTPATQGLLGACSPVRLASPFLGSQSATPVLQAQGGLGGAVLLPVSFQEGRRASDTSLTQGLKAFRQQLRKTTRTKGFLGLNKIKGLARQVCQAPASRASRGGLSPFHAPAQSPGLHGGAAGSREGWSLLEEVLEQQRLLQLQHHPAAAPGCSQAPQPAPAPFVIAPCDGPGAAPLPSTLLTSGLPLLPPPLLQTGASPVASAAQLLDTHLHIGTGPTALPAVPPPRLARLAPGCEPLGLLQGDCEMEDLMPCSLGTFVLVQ
T38 sequence (Q9NY57 whole entry): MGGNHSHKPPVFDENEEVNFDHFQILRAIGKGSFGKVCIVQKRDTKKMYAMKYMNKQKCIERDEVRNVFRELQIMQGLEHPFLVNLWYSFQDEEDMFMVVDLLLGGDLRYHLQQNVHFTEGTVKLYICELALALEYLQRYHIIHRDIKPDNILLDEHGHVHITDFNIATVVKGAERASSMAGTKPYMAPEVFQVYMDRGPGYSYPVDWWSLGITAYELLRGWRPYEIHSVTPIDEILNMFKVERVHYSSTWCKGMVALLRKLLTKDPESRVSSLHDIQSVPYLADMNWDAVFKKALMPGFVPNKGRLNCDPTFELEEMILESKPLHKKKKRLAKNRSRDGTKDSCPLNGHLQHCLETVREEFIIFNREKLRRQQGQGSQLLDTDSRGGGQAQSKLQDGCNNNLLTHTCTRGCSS
T39 sequence (Q13043 whole entry): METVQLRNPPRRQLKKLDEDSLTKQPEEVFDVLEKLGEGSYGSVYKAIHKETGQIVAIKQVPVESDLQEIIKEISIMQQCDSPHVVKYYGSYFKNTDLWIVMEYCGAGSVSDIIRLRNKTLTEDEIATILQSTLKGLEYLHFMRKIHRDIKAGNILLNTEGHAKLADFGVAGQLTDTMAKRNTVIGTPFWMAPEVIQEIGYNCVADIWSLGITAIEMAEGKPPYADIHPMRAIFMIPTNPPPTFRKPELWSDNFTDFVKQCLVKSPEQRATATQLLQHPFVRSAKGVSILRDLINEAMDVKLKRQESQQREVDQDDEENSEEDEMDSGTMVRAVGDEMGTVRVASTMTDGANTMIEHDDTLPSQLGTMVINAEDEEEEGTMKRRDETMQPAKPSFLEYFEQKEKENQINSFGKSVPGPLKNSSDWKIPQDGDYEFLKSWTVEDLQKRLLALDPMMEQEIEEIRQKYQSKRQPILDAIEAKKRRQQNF
T12 sequence (Q00532 whole entry): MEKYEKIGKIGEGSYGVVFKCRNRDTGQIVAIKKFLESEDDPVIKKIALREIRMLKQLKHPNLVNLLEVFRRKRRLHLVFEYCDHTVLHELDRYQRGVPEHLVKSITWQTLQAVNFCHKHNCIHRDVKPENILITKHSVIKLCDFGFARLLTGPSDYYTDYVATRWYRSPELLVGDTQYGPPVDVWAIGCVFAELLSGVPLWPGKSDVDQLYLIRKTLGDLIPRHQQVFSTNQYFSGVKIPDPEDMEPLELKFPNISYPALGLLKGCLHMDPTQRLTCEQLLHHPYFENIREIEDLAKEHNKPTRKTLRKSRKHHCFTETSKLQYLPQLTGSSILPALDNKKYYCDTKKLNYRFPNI
T30 sequence (Q92918 whole entry): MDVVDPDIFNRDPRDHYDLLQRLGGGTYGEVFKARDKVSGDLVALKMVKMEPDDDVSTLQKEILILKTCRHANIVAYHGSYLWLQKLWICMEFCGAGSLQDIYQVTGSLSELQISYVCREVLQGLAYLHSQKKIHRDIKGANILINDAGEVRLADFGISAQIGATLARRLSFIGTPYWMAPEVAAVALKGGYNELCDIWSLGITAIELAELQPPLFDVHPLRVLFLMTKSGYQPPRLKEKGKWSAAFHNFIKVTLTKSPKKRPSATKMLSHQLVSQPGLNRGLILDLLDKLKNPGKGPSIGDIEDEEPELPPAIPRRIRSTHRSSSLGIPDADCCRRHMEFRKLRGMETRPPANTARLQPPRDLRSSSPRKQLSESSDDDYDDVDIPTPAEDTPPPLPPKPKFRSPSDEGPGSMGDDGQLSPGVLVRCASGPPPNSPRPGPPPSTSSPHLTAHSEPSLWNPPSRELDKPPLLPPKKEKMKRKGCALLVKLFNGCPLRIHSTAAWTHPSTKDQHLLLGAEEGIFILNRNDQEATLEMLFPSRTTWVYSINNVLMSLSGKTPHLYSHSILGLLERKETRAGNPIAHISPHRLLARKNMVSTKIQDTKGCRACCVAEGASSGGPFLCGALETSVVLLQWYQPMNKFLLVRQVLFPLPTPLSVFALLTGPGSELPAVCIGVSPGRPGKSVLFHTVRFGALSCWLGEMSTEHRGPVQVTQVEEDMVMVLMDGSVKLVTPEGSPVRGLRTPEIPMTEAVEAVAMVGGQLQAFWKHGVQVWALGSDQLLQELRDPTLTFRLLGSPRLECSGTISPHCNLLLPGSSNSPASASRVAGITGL
T27 sequence (Q99759 whole entry): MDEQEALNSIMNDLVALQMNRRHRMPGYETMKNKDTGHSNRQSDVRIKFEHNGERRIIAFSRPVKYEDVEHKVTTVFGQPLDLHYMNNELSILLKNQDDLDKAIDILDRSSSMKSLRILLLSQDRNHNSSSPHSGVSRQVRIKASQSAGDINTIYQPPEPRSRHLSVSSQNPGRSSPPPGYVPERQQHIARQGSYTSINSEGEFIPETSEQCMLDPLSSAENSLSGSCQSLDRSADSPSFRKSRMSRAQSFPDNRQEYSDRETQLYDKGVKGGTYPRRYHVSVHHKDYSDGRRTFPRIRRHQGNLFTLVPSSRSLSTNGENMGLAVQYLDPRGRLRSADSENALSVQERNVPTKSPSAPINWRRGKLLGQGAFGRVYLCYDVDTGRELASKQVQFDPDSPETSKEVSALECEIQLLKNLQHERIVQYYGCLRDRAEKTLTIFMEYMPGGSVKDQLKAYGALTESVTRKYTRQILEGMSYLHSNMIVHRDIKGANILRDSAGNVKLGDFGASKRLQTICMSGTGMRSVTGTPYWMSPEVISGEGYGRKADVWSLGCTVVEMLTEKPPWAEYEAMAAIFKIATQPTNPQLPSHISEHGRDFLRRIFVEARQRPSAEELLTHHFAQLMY
T40 sequence (Q7KZI7 whole entry): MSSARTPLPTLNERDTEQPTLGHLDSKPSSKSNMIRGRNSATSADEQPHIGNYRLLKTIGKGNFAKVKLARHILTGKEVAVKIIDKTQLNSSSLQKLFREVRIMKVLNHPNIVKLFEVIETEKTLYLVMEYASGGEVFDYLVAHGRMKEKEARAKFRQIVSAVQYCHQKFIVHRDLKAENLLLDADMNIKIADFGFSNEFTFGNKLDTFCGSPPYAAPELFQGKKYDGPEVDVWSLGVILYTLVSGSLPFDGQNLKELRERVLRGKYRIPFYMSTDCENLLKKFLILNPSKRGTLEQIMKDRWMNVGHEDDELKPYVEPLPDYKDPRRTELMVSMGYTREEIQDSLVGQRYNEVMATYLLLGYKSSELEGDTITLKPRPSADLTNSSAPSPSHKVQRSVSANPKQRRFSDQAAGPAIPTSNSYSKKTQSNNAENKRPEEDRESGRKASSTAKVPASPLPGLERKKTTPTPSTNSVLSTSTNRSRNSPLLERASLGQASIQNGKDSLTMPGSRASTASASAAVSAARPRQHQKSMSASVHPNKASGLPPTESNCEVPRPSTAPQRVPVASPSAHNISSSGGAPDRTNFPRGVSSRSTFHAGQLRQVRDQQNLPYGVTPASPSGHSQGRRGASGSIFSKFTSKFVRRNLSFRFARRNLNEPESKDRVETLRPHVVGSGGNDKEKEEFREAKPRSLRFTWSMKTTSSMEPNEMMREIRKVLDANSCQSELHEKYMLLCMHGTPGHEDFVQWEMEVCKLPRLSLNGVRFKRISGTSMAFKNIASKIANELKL

SMILES: COc1ccc(OC)c(-n2nnc(S(=O)(=O)c3ccc(C(C)(C)C)cc3)c2C)c1 [SPA70]
- %Inhibition by 10 μM SPA70 (SIK): 0%
- inhibition at 10 µM (FGFR4): 5%
- inhibition at 10 µM (LKB1): 0%
- %Inhibition by 10 μM SPA70 (GSK3B): not inhibited
- inhibition at 10 µM (GSK3B; read-out: %Inhibition by 10 μM SPA70): 0%
- inhibition at 10 µM (PAK6): 4%
- inhibition at 10 µM (ERBB4): 2%
- inhibition at 10 µM (CSNK2A2): 10%
- inhibition at 10 µM (ERK3): 11%
- inhibition at 10 µM (MAP3K15): 0%
- %Inhibition by 10 μM SPA70 (JNK1): 9%
- inhibition at 10 µM (TRKC): 0%
- inhibition at 10 µM (CDKL1): 9%
- inhibition at 10 µM (p38-beta): 0%
- inhibition at 10 µM (DYRK2): 12%
- inhibition at 10 µM (MTOR): 0%
- inhibition at 10 µM (NIM1): 4%
- inhibition at 10 µM (CDK9): 0%
- inhibition at 10 µM (PIK3CD): 0%
- inhibition at 10 µM (MYLK): 0%
- inhibition at 10 µM (RIPK2): 0%
- inhibition at 10 µM (AKT3): 0%
- inhibition at 10 µM (MEK4): 0%
- inhibition at 10 µM (ACVR1B): 0%
- inhibition at 10 µM (MRCKA): 0%
- inhibition at 10 µM (PKN1): 0%
- inhibition at 10 µM (MYO3B): 5%
- inhibition at 10 µM (MAP3K3): 16%
- inhibition at 10 µM (FLT1): 0%
- inhibition at 10 µM (MAP4K2): 0%
- inhibition at 10 µM (HPK1): 1%
- inhibition at 10 µM (PRKD2): 9%
- %Inhibition by 10 μM SPA70 (CHEK1): 8%
- %Inhibition by 10 μM SPA70 (ACVR2B): 0%
- inhibition at 10 µM (INSR): 0%
- inhibition at 10 µM (RIPK5): 24%
- inhibition at 10 µM (CLK2): 24%
- inhibition at 10 µM (DRAK1): 7%
- inhibition at 10 µM (YANK2): 0%
- %Inhibition by 10 μM SPA70 (MST1): 0%
- inhibition at 10 µM (MARK2): 16%
- inhibition at 10 µM (PIP5K2C): 10%
- inhibition at 10 µM (FRK): 0%
- inhibition at 10 µM (NEK9): 0%
